The results in this text go back to patent US20250388605A1, “HETEROBIFUNCTIONAL COMPOUNDS AND METHODS OF TREATING DISEASE” (Halda Therapeutics OpCo, Inc., priority 2022, published 2025).

The test system of experiment [1] is T-Rex 293 cell line SC3 cells having increased expression of androgen receptor protein due to exposure to doxycycline. Nature of the experiment: Cellular growth inhibition, T-Rex 293 SC3 cells with doxycycline (increased androgen receptor expression), CellTiter-Glo. It is filed as cell-based. To be noted: T-Rex 293 SC3 cells with 10 ng/mL doxycycline (increased androgen receptor expression), 72 hours, CellTiter-Glo 2.0. An outline of the steps: (§1)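 Growth inhibition is measured in an inducible AR-expressing T-Rex 293 clone, SC3, cultured with or without 10 ng/mL doxycycline in hormone-depleted medium. Test compounds are applied for 72 hours. GI50 values derive from CellTiter-Glo 2.0 signal fitted by four-parameter regression.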

Experiment [2] has as its system T-Rex 293 cell line SC3 cells lacking increased expression of androgen receptor protein. Nature of the experiment: Cellular growth inhibition, T-Rex 293 SC3 cells without doxycycline (no increased androgen receptor expression), CellTiter-Glo. The experiment is classed as cell-based. Particulars: T-Rex 293 SC3 cells not exposed to doxycycline (no increased androgen receptor expression), 72 hours. An outline of the steps: as §1

For a further experiment, the system named is VCaP cells. As to the kind of experiment: Cellular growth inhibition assay for VCaP cells, CellTiter-Glo. It is filed as cell-based, human. Particulars: 72 hours. The procedure, abridged: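 GI50 values come from four-parameter curve fits of luminescence data normalized to a zero baseline. Compound, in medium with 0.5% DMSO, was added one day after plating and left for 72 h before CellTiter-Glo 2.0 addition.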

In a further experiment the test system is T47D cells. As to the kind of experiment: Cellular Growth Inhibition Assay for T47D Cells (CellTiter-Glo). It is filed as cell-based, human. To be noted: 72 hours. The procedure, abridged: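 GI50 values derive from four-parameter regression of CellTiter-Glo 2.0 luminescence, using zero luminescence as baseline. Human breast cancer T47D cells (3000/well; DMEM, 10% FBS, 0.2 units/mL insulin) were exposed for 72 h to compound dilutions at 0.5% DMSO, with dosing starting 24 h after seeding.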

For `CCS(=O)(=O)Nc1ccc(Oc2cccc(N3CC(CC4CCN(c5ncc(C(=O)N[C@H]6C(C)(C)[C@H](Oc7ccc(C#N)c(Cl)c7)C6(C)C)cn5)CC4)C3)c2)c(-c2cn(C)c(=O)c3[nH]ccc23)c1` [Compound I-79], the GI50 in experiment [1] was below 500 nM; in experiment [2] it was 500 to 1500 nM; in the experiment on VCaP cells (Homo sapiens), below 500 nM; in the experiment with T47D cells (Homo sapiens), below 500 nM.

With `Cn1cc(-c2cc(C(C)(C)O)ccc2Oc2ccc(N3CC(CC4CCN(c5ncc(C(=O)N[C@H]6C(C)(C)[C@H](Oc7ccc(C#N)c(Cl)c7)C6(C)C)cn5)CC4)C3)cn2)c2cc[nH]c2c1=O` [Compound I-345, N-[3-(3-chloro-4-cyano-phenoxy)-2,2,4,4-tetramethyl-cyclobutyl]-2-[4-[[1-[6-[4-(1-hydroxy-1-methyl-ethyl)-2-(6-methyl-7-oxo-1H-pyrrolo [2,3-c]pyridin-4-yl)phenoxy]-3-pyridyl]azetidin-3-yl]methyl]-1-piperidyl]pyrimidine-5-carboxamide], the GI50 in experiment [1] is below 500 nM; in experiment [2] it was above 3000 nM; with VCaP cells (Homo sapiens), below 500 nM; in the experiment on T47D cells (Homo sapiens), below 500 nM.

As for `Cn1cc(-c2cc(C(C)(C)O)ccc2-n2cc(N3CC(CC4CCN(c5ncc(C(=O)NC6C(C)(C)C(Oc7ccc(C#N)c(Cl)c7)C6(C)C)cn5)CC4)C3)ccc2=O)c2cc[nH]c2c1=O` (stereo not shown) [Compound I-344, N-[3-(3-chloro-4-cyano-phenoxy)-2,2,4,4-tetramethyl-cyclobutyl]-2-[4-[[1-[1-[4-(1-hydroxy-1-methyl-ethyl)-2-(6-methyl-7-oxo-1H-pyrrolo [2,3-c]pyridin-4-yl)phenyl]-6-oxo-3-pyridyl]azetidin-3-yl]methyl]-1-piperidyl]pyrimidine-5-carboxamide], the GI50 in experiment [1] is above 3000 nM; in experiment [2], above 3000 nM; in the experiment with VCaP cells (Homo sapiens), above 3000 nM; in the experiment with T47D cells (Homo sapiens), 500 to 1500 nM.

As to `Cn1cc(-c2cc(C(C)(C)O)ccc2Oc2ccc(CC3CCN(c4ncc(C(=O)N[C@H]5C(C)(C)[C@H](Oc6ccc(C#N)c(Cl)c6)C5(C)C)cn4)CC3)nc2)c2cc[nH]c2c1=O` [Compound I-298, N-[3-(3-chloro-4-cyano-phenoxy)-2,2,4,4-tetramethyl-cyclobutyl]-2-[4-[[5-[4-(1-hydroxy-1-methyl-ethyl)-2-(6-methyl-7-oxo-1H-pyrrolo[2,3-c]pyridin-4-yl)phenoxy]-2-pyridyl]methyl]-1-piperidyl]pyrimidine-5-carboxamide], the GI50 (in experiment [1]; in experiment [2]; in the experiment with VCaP cells (Homo sapiens); in the experiment on T47D cells (Homo sapiens)) was below 500 nM in each case.

As to `Cn1cc(-c2cc(C(C)(C)O)ccc2Oc2ccc(OC3CCN(c4ncc(C(=O)N[C@H]5C(C)(C)[C@H](Oc6ccc(C#N)c(Cl)c6)C5(C)C)cn4)CC3)nc2)c2cc[nH]c2c1=O` [Compound I-297, N-[3-(3-chloro-4-cyano-phenoxy)-2,2,4,4-tetramethyl-cyclobutyl]-2-[4-[[5-[4-(1-hydroxy-1-methyl-ethyl)-2-(6-methyl-7-oxo-1H-pyrrolo[2,3-c]pyridin-4-yl)phenoxy]-2-pyridyl]oxy]-1-piperidyl]pyrimidine-5-carboxamide], the concentration for 50% growth inhibition (GI50) (in experiment [1]; in experiment [2]; in the experiment on VCaP cells (Homo sapiens); in the experiment on T47D cells (Homo sapiens)) was below 500 nM each time.

For `Cn1cc(-c2cc(C(C)(C)O)ccc2OC2CCC(N3CC(OC4CCN(c5ncc(C(=O)NC6C(C)(C)C(Oc7ccc(C#N)c(Cl)c7)C6(C)C)cn5)CC4)C3)C2)c2cc[nH]c2c1=O` (stereo not shown) [Compound I-266, N-[3-(3-chloro-4-cyano-phenoxy)-2,2,4,4-tetramethyl-cyclobutyl]-2-[4-[1-[3-[4-(1-hydroxy-1-methyl-ethyl)-2-(6-methyl-7-oxo-1H-pyrrolo[2,3-c]pyridin-4-yl)phenoxy]cyclopentyl]azetidin-3-yl]oxy-1-piperidyl]pyrimidine-5-carboxamide], the GI50 in experiment [1] was below 500 nM; in experiment [2], 1500 to 3000 nM; with VCaP cells (Homo sapiens) it was below 500 nM; with T47D cells (Homo sapiens), 500 to 1500 nM.

For `Cn1cc(-c2cc(C(C)(C)O)ccc2OC2CC3(C2)CN(CCC2CCN(c4ncc(C(=O)NC5C(C)(C)C(Oc6ccc(C#N)c(Cl)c6)C5(C)C)cn4)CC2)C3)c2cc[nH]c2c1=O` (stereo not shown) [Compound I-281, N-[3-(3-chloro-4-cyano-phenoxy)-2,2,4,4-tetramethyl-cyclobutyl]-2-[4-[2-[6-[4-(1-hydroxy-1-methyl-ethyl)-2-(6-methyl-7-oxo-1H-pyrrolo[2,3-c]pyridin-4-yl)phenoxy]-2-azaspiro[3.3]heptan-2-yl]ethyl]-1-piperidyl]pyrimidine-5-carboxamide], the concentration for 50% growth inhibition (GI50) in experiment [1] was below 500 nM; in experiment [2], 500 to 1500 nM; in the experiment with VCaP cells (Homo sapiens), below 500 nM; in the experiment on T47D cells (Homo sapiens), below 500 nM.

With `Cn1cc(-c2cc(C(C)(C)O)ccc2Oc2ccc(CN3CC4(C3)CN(c3ncc(C(=O)N[C@H]5C(C)(C)[C@H](Oc6ccc(C#N)c(Cl)c6)C5(C)C)cn3)C4)cc2)c2cc[nH]c2c1=O` [Compound I-327], the 50% growth inhibitory concentration (GI50) (in experiment [1]; in experiment [2]; in the experiment with VCaP cells (Homo sapiens); in the experiment on T47D cells (Homo sapiens)) was below 500 nM each time.

Turning to `CCS(=O)(=O)c1ccc(Oc2ccc(CCN3CC4(C3)CN(c3ncc(C(=O)N[C@H]5C(C)(C)[C@H](Oc6ccc(C#N)c(Cl)c6)C5(C)C)cn3)CCO4)cc2)c(-c2cn(C)c(=O)c3[nH]ccc23)c1` [Compound I-262], the GI50 (in experiment [1]; in experiment [2]; in the experiment with VCaP cells; in the experiment on T47D cells) was below 500 nM in each case.

For `Cn1cc(-c2cc(NS(=O)(=O)C3CC3)ccc2Oc2cccc(N3CC(CC4CCN(c5ncc(C(=O)N[C@H]6C(C)(C)[C@H](Oc7ccc(C#N)c(Cl)c7)C6(C)C)cn5)CC4)C3)c2F)c2cc[nH]c2c1=O` [Compound I-170], the GI50 in experiment [1] was below 500 nM; in experiment [2] it was above 3000 nM; in the experiment on VCaP cells, below 500 nM; in the experiment with T47D cells it was 500 to 1500 nM.

For the compound `Cn1cc(-c2cc([N+](=O)[O-])ccc2Oc2cccc(OCCOC3CCN(c4ncc(C(=O)N[C@H]5C(C)(C)[C@H](Oc6ccc(C#N)c(Cl)c6)C5(C)C)cn4)CC3)c2)c2cc[nH]c2c1=O` [Compound I-63, N-((1r, 3r)-3-(3-chloro-4-cyanophenoxy)-2,2,4,4-tetramethylcyclobutyl)-2-(4-(2-(3-(2-(6-methyl-7-oxo-6,7-dihydro-1H-pyrrolo[2,3-c]pyridin-4-yl)-4-nitrophenoxy)phenoxy)ethoxy)piperidin-1-yl)pyrimidine-5-carboxamide], the GI50 in experiment [1] was below 500 nM; in experiment [2], above 3000 nM; in the experiment with VCaP cells (Homo sapiens) it was below 500 nM; in the experiment with T47D cells (Homo sapiens), 500 to 1500 nM.

With `Cn1cc(-c2cc(C(C)(C)O)ccc2Oc2ccc(CCC3CN(c4ncc(C(=O)N[C@H]5C(C)(C)[C@H](Oc6ccc(C#N)c(Cl)c6)C5(C)C)cn4)CCO3)cc2)c2cc[nH]c2c1=O` (stereo partly shown) [Compound I-305], the GI50 is below 500 nM in experiment [1], above 3000 nM in experiment [2], below 500 nM in the experiment on VCaP cells (Homo sapiens) and below 500 nM with T47D cells (Homo sapiens).

For `Cn1cc(-c2cc(C(C)(C)O)ccc2Oc2ccc(N3CC(CC4CCN(c5ncc(C(=O)N[C@H]6C(C)(C)[C@H](Oc7ccc(C#N)c(Cl)c7)C6(C)C)cn5)CC4)C3)nc2)c2cc[nH]c2c1=O` [Compound I-333, N-[3-(3-chloro-4-cyano-phenoxy)-2,2,4,4-tetramethyl-cyclobutyl]-2-[4-[[1-[5-[4-(1-hydroxy-1-methyl-ethyl)-2-(6-methyl-7-oxo-1H-pyrrolo[2,3-c]pyridin-4-yl)phenoxy]-2-pyridyl]azetidin-3-yl]methyl]-1-piperidyl]pyrimidine-5-carboxamide], the GI50 is below 500 nM in experiment [1], above 3000 nM in experiment [2], below 500 nM in the experiment on VCaP cells (Homo sapiens) and below 500 nM in the experiment on T47D cells (Homo sapiens).

As for `CCS(=O)(=O)c1ccc(-c2cn(C)c(=O)c3[nH]ccc23)c(-n2cc(CCC3CCN(c4ncc(C(=O)NC5C(C)(C)C(Oc6ccc(C#N)c(Cl)c6)C5(C)C)cn4)CC3)ncc2=O)c1` (stereo not shown) [Compound I-292, N-[3-(3-chloro-4-cyano-phenoxy)-2,2,4,4-tetramethyl-cyclobutyl]-2-[4-[2-[4-[5-ethylsulfonyl-2-(6-methyl-7-oxo-1H-pyrrolo[2,3-c]pyridin-4-yl)phenyl]-5-oxo-pyrazin-2-yl]ethyl]-1-piperidyl]pyrimidine-5-carboxamide], the GI50 (in experiment [1]; in experiment [2]; with VCaP cells (Homo sapiens); in the experiment on T47D cells (Homo sapiens)) was below 500 nM throughout.

In the case of `Cn1cc(-c2cc(C(C)(C)O)ccc2Oc2ccc(CCC3C4CN(c5ncc(C(=O)N[C@H]6C(C)(C)[C@H](Oc7ccc(C#N)c(Cl)c7)C6(C)C)cn5)CC34)cc2)c2cc[nH]c2c1=O` (stereo partly shown) [Compound I-286], the 50% growth inhibitory concentration (GI50) in experiment [1] is below 500 nM; in experiment [2], 500 to 1500 nM; in the experiment on VCaP cells, below 500 nM; in the experiment with T47D cells it was below 500 nM.

On to `Cn1cc(-c2cc(C(C)(C)O)ccc2OC2CC(OC3CCN(c4ncc(C(=O)NC5C(C)(C)C(Oc6ccc(C#N)c(Cl)c6)C5(C)C)cn4)CC3)C2)c2cc[nH]c2c1=O` (stereo not shown) [Compound I-274, N-[3-(3-chloro-4-cyano-phenoxy)-2,2,4,4-tetramethyl-cyclobutyl]-2-[4-[3-[4-(1-hydroxy-1-methyl-ethyl)-2-(6-methyl-7-oxo-1H-pyrrolo[2,3-c]pyridin-4-yl)phenoxy]cyclobutoxy]-1-piperidyl]pyrimidine-5-carboxamide], for which the GI50 (in experiment [1]; in experiment [2]; in the experiment with VCaP cells (Homo sapiens); with T47D cells (Homo sapiens)) was below 500 nM in each case.
